Measurements reported in PubChem BioAssay AID2060620 (Molecular Pharmacology Branch, DTP, NCI, 2025).

Tested on: 328373-195-R-J1-PDC complex spheroids, viability % test/control
Assay: Anticancer human tumor 328373-195-R-J1-PDC patient-derived head and neck squamous carcinoma cell line growth inhibition [CLK]
Settings: for IC50: curve of first compound; for viability, T/C: stronger effect = lower value
Source text: A high-throughput screen of multi-cell type tumor spheroids was designed to identify active combinations of […] and targeted small molecules. Complex spheroids include a stromal component modeled by human endothelial cells (HUVEC) and fibroblasts modeled by human mesenchymal stem cells (MSCs). The concentration ranges selected for each drug and investigational agent were based upon clinically achievable concentrations if the clinical Cmax of the agent was known.
Compounds. The drugs and investigational agents: cirtuvivint (SM08502; NSC835563), CC-671 (NSC850746), vemurafenib (NSC761431), tapotoclax (NSC804041), sotorasib (NSC818433), adagrasib (NSC831453), MRTX-1133 (NSC836407), BAY2416964 (NSC825713), copanlisib (NSC816437), inavolisib (NSC800729), abemaciclib (NSC768073), osimertinib (NSC779217), entinostat (NSC756642), eltanexor (KPT-8602, NSC794443), venetoclax (NSC766270), ceralasertib (NSC777638), bortezomib (NSC756655), olaparib (NSC753686), talazoparib (NSC767125), alisertib (NSC759677), peposertib (NSC802822), gemcitabine (NSC613327), 5-fluorouracil (NSC19893), SN-38 (NSC673596), oxaliplatin (NSC266046), paclitaxel (NSC125973), and doxorubicin (NSC123127), were obtained from the National Cancer Institute (NCI) Developmental Therapeutics Program Chemical Repository. The FDA-approved anticancer drug set is available from the Developmental Therapeutics Program at https://dtp.cancer.gov/organization/dscb/obtaining/available plates.htm. […] The stock solutions were prepared in dimethyl sulfoxide (DMSO, Sigma-Aldrich, St. Louis, MO, cat. D2650), except for the platinum complexes which were prepared in saline (Quality Biological, Gaithersburg, MD, cat. 114-055-101), at 800-fold the tested concentration and stored at -70 degrees C prior to their use. All drugs and investigational agents were tested over a range starting from a high concentration at or near the clinical Cmax and decreasing in half-log increments. If the clinical Cmax for an agent had not been determined, the highest concentration tested was 10 microM.
Cell Culture. All cells were maintained in an incubator at 37 degrees C and 5% CO2 with 95% humidity. The PDC lines were cultured according to standard operating procedures established by the NCI PDMR. Briefly, all PDCs were thawed and cultured in Matrigel-coated flasks prepared with a working solution of 1X Ham's F-12 nutrient mix, without supplementation (Invitrogen, Waltham, MA, cat. 11765054), 100 U/mL penicillin-streptomycin (Invitrogen, cat. 15140122), and 2.5% Matrigel (Corning Inc., Corning, NY, cat. 354248) for the first three passages. The 947758-054-R-J2-PDC line was cultured in 6B/Colon 1A media, which includes advanced DMEM/F-12 (Thermo Fisher Scientific, cat. 12634028), 10 mM HEPES (Thermo Fisher Scientific, cat. 15630080), 1X GlutaMAX supplement (Thermo Fisher Scientific, cat. 35050061), 0.1 mg/mL primocin (InvivoGen, cat. ant-pm-2), 10% defined fetal bovine serum, heat inactivated (HyClone Laboratories Inc., cat. SH30070.03HI), 1.25 mM N-Acetyl-L-cysteine (Sigma-Aldrich, cat. A9165), 10 mM nicotinamide (Sigma-Aldrich, cat. N0636), 1X B-27 supplement (Thermo Fisher Scientific, cat. 17504044), 1X N-2 supplement (Thermo Fisher Scientific, cat. 17502048), and 10 microM Y-27632 dihydrochloride (Tocris Bioscience, cat. 1254). The 876862-298-R-J1-PDC was cultured in 6E media, which includes all 6B/Colon 1A media components plus 50% L-WRN conditioned media (ATCC, cat. CRL-3276), 50 ng/mL recombinant human EGF recombinant protein (hEGF; Thermo Fisher Scientific, cat. PHG0311), 10 ng/mL recombinant human fibroblast growth factor 10 (hGFG-10; PeproTech, cat. 100-26), 1 ng/mL recombinant human fibroblast growth factor 2 (hFGF-2; PeproTech, cat. 100-18B), and 1 µM prostaglandin E2 (PGE2; Tocris, cat. 2296). The 227483-062-R1-J1-PDC line was cultured in Panc media, containing all 6E components except hFGF-2, with the addition of 500 nM SB-431542 (Selleckchem, cat. S1067) and 10 nM gastrin (Tocris, cat. 3006). […]

[1] = second compound 0.0316 µM, first compound 0.0316 µM
[2] = second compound 0.0316 µM, first compound 0.1 µM
[3] = second compound 0.0316 µM, first compound 0.316 µM
[4] = second compound 0.0316 µM, first compound 1 µM
[5] = second compound 0.1 µM, first compound 0.0316 µM
[6] = second compound 0.1 µM, first compound 0.1 µM
[7] = second compound 0.1 µM, first compound 0.316 µM
[8] = second compound 0.1 µM, first compound 1 µM
[9] = second compound 0.316 µM, first compound 0.0316 µM
[10] = second compound 0.316 µM, first compound 0.1 µM
[11] = second compound 0.316 µM, first compound 0.316 µM
[12] = second compound 0.316 µM, first compound 1 µM
[13] = second compound 1 µM, first compound 0.0316 µM
[14] = second compound 1 µM, first compound 0.1 µM
[15] = second compound 1 µM, first compound 0.316 µM
[16] = second compound 1 µM, first compound 1 µM
[17] = second compound 3.16 µM, first compound 0.0316 µM
[18] = second compound 3.16 µM, first compound 0.1 µM
[19] = second compound 3.16 µM, first compound 0.316 µM
[20] = second compound 3.16 µM, first compound 1 µM
[21] = second compound 10 µM, first compound 0.0316 µM
[22] = second compound 10 µM, first compound 0.1 µM
[23] = second compound 10 µM, first compound 0.316 µM
[24] = second compound 10 µM, first compound 1 µM
[25] = second compound 0.0316 µM, first compound 0.00316 µM
[26] = second compound 0.0316 µM, first compound 0.01 µM
[27] = second compound 0.1 µM, first compound 0.00316 µM
[28] = second compound 0.1 µM, first compound 0.01 µM
[29] = second compound 0.316 µM, first compound 0.00316 µM
[30] = second compound 0.316 µM, first compound 0.01 µM
[31] = second compound 1 µM, first compound 0.00316 µM
[32] = second compound 1 µM, first compound 0.01 µM
[33] = second compound 3.16 µM, first compound 0.00316 µM
[34] = second compound 3.16 µM, first compound 0.01 µM
[35] = second compound 10 µM, first compound 0.00316 µM
[36] = second compound 10 µM, first compound 0.01 µM
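Also: spheroids exposed to the agents for 7 days.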

`CC(Nc1ccc2c(c1)OCCn1cc(N3C(=O)OCC3C(F)F)nc1-2)C(N)=O` (stereo unspecified) + CN1CCN(c2cc(C(=O)Nc3cc4cc(-c5cnn(C)c5)ccc4cn3)ccn2)CC1 was tested, and the IC50 (second compound 0.0316 µM) was > 10 µM, the IC50 (second compound 0.1 µM) was 2.42 µM and the IC50 (second compound 0.316 µM) was < 0.0316 µM. For the same compound, the IC50 (second compound 1 µM) was < 0.0316 µM, the IC50 (second compound 3.16 µM) was < 0.0316 µM and the IC50 (second compound 10 µM) was < 0.0316 µM. The viability, T/C [1] was 90.4%, the viability, T/C [2] was 88.7% and the viability, T/C [3] was 87.1%. The viability, T/C [4] was 78.4%, the viability, T/C (second compound 0.0316 µM, first compound 3.16 µM) was 58.1% and the viability, T/C (second compound 0.0316 µM, first compound 10 µM) was 53.7%. It also gave a viability, T/C [5] of 75.8%, a viability, T/C [6] of 74.3% and a viability, T/C [7] of 73.7%. It also gave a viability, T/C [8] of 67.2%, a viability, T/C (second compound 0.1 µM, first compound 3.16 µM) of 44.2% and a viability, T/C (second compound 0.1 µM, first compound 10 µM) of 45.4%. For the same compound, the viability, T/C [9] was 34.3%, the viability, T/C [10] was 28.9% and the viability, T/C [11] was 28.8%. For the same compound, the viability, T/C [12] was 23.8%, the viability, T/C (second compound 0.316 µM, first compound 3.16 µM) was 17.7% and the viability, T/C (second compound 0.316 µM, first compound 10 µM) was 17.5%. It also gave a viability, T/C [13] of 0.25%, a viability, T/C [14] of 0.23% and a viability, T/C [15] of 1.16%. For the same compound, the viability, T/C [16] was 0.41%, the viability, T/C (second compound 1 µM, first compound 3.16 µM) was 1.23% and the viability, T/C (second compound 1 µM, first compound 10 µM) was 1.08%. It also gave a viability, T/C [17] of 1.31%, a viability, T/C [18] of 0.16% and a viability, T/C [19] of 1.05%. It also gave a viability, T/C [20] of 0.11%, a viability, T/C (second compound 3.16 µM, first compound 3.16 µM) of 2.46% and a viability, T/C (second compound 3.16 µM, first compound 10 µM) of 2.43%. It also gave a viability, T/C [21] of 0.1%, a viability, T/C [22] of 1.44% and a viability, T/C [23] of 0.26%. The viability, T/C [24] was 0.2%, the viability, T/C (second compound 10 µM, first compound 3.16 µM) was 2.32% and the viability, T/C (second compound 10 µM, first compound 10 µM) was 1.83%.

In the case of `CCN1CCN(Cc2ccc(Nc3ncc(F)c(-c4cc(F)c5nc(C)n(C(C)C)c5c4)n3)nc2)CC1` + CN1CCN(c2cc(C(=O)Nc3cc4cc(-c5cnn(C)c5)ccc4cn3)ccn2)CC1, the IC50 (second compound 0.0316 µM) is reported as > 1 µM, the IC50 (second compound 0.1 µM) is reported as > 1 µM and the IC50 (second compound 0.316 µM) is reported as < 0.00316 µM. For the same compound, the IC50 (second compound 1 µM) was < 0.00316 µM, the IC50 (second compound 3.16 µM) was < 0.00316 µM and the IC50 (second compound 10 µM) was < 0.00316 µM. For the same compound, the viability, T/C [25] was 94.7%, the viability, T/C [26] was 95.9% and the viability, T/C [1] was 103%. The viability, T/C [2] was 79.5%, the viability, T/C [3] was 71.3% and the viability, T/C [4] was 51.2%. For the same compound, the viability, T/C [27] was 86.5%, the viability, T/C [28] was 84.8% and the viability, T/C [5] was 88.5%. For the same compound, the viability, T/C [6] was 69.3%, the viability, T/C [7] was 63% and the viability, T/C [8] was 53.3%. It also gave a viability, T/C [29] of 29.9%, a viability, T/C [30] of 32.9% and a viability, T/C [9] of 31.6%. It also gave a viability, T/C [10] of 26.5%, a viability, T/C [11] of 24.2% and a viability, T/C [12] of 18.5%. For the same compound, the viability, T/C [31] was 0.16%, the viability, T/C [32] was 2.17% and the viability, T/C [13] was 0.34%. It also gave a viability, T/C [14] of 1.1%, a viability, T/C [15] of 0.85% and a viability, T/C [16] of 0.24%. It also gave a viability, T/C [33] of 0.11%, a viability, T/C [34] of 1.57% and a viability, T/C [17] of 1.92%. The viability, T/C [18] was 0.15%, the viability, T/C [19] was 1.14% and the viability, T/C [20] was 0.2%. The viability, T/C [35] was 0.37%, the viability, T/C [36] was 0.56% and the viability, T/C [21] was 3.2%. For the same compound, the viability, T/C [22] was 0.17%, the viability, T/C [23] was 1.94% and the viability, T/C [24] was 1.71%.

With `COc1c(OCCCN2CCOCC2)ccc2c3n(c(=NC(=O)c4cnc(N)nc4)nc12)CCN3` + CN1CCN(c2cc(C(=O)Nc3cc4cc(-c5cnn(C)c5)ccc4cn3)ccn2)CC1 the IC50 (second compound 0.0316 µM) was 0.126 µM, the IC50 (second compound 0.1 µM) was 0.0799 µM and the IC50 (second compound 0.316 µM) was < 0.00316 µM. The IC50 (second compound 1 µM) was < 0.00316 µM, the IC50 (second compound 3.16 µM) was < 0.00316 µM and the IC50 (second compound 10 µM) was < 0.00316 µM. The viability, T/C [25] was 95.8%, the viability, T/C [26] was 93.9% and the viability, T/C [1] was 77.9%. The viability, T/C [2] was 52.7%, the viability, T/C [3] was 31.9% and the viability, T/C [4] was 9.52%. For the same compound, the viability, T/C [27] was 71.7%, the viability, T/C [28] was 77.8% and the viability, T/C [5] was 63.5%. It also gave a viability, T/C [6] of 46.4%, a viability, T/C [7] of 23.2% and a viability, T/C [8] of 10.4%. The viability, T/C [29] was 32.5%, the viability, T/C [30] was 35.3% and the viability, T/C [9] was 20.4%. The viability, T/C [10] was 17.1%, the viability, T/C [11] was 7.35% and the viability, T/C [12] was 4.17%. The viability, T/C [31] was 0.2%, the viability, T/C [32] was 1.02% and the viability, T/C [13] was 0.29%. It also gave a viability, T/C [14] of 0.33%, a viability, T/C [15] of 0.18% and a viability, T/C [16] of 4.25%. It also gave a viability, T/C [33] of 0.08%, a viability, T/C [34] of 3.15% and a viability, T/C [17] of 0.9%. The viability, T/C [18] was 0.09%, the viability, T/C [19] was 2.94% and the viability, T/C [20] was 0.12%. For the same compound, the viability, T/C [35] was 0.62%, the viability, T/C [36] was 2.77% and the viability, T/C [21] was 0.15%. For the same compound, the viability, T/C [22] was 0.14%, the viability, T/C [23] was 1.52% and the viability, T/C [24] was 1.72%.
